In patent US20130316027A1, “ANTIMICROBIAL COMPOSITION” (priority 2011, published 2013):

Assays:
MS2 Phage = test: Virucidal suspension test (EN14476), virus kill of MS-2 bacteriophage; type: cell-based; conditions: contact time five minutes, clean conditions (bovine albumin), MS2 Phage control 6.36, Table 3
Method: (§1) The virucidal activity of various test solutions were measured using the following protocol.
(§2) A standard EST protocol (EN14476) was followed for the evaluation of activity of antiviral actives in suspension test. Antiviral activity of actives was tested in clean conditions.
(§3) Clean conditions: To create clean conditions, 0.3 g of bovine albumin fraction V was dissolved in 100 ml of water and sterilised by passing the solution through a 0.2 μm filter).
Preparation of test mixture: To prepare the test mixture, 1 ml of interfering substance (Bovine Albumin) was pipetted into a suitable container, followed by addition of 1 ml of test virus suspension. To this, 8 ml of product test solution was added. At the end of chosen contact time period, 100 μl of the test mixture was added to resin column. Centrifugation of microspin column (735×g, 2 min). The elutant was diluted up to 10^−6 in ice cold virus growth medium. The infectivity of each dilution was measured by TCID50 using the Spaerman-Karber formula. Titration of Virus: Monolayers of cells were grown in 96-well tissue-culture plates (Costar) at 37° C. in an atmosphere of 95% air and 5% carbon dioxide (CO2). […] The virus titre was calculated by TCID50 (Tissue culture infective dose) using the Spaerman-Karber formula. […]
Various compositions as shown in Table-3 were prepared and their virucidal activity was measured using the procedure given earlier. […]

[1] = tested on: RSV (Respiratory syncitial virus); test: Virucidal suspension test (EN14476), virus kill of RSV; type: cell-based; conditions: contact time five minutes, clean conditions (bovine albumin)
Method: as §1, §2, §3
(§4) Preparation of test mixture: To prepare the test mixture, 1 ml of interfering substance (Bovine Albumin) was pipetted into a suitable container, followed by addition of 1 ml of test virus suspension. To this, 8 ml of product test solution was added. At the end of chosen contact time period, 100 μl of the test mixture was added to resin column. Centrifugation of microspin column (735×g, 2 min). The elutant was diluted up to 10^−6 in ice cold virus growth medium. The infectivity of each dilution was measured by TCID50 using the Spaerman-Karber formula. Titration of Virus: Monolayers of cells were grown in 96-well tissue-culture plates (Costar) at 37° C. in an atmosphere of 95% air and 5% carbon dioxide (CO2). Tenfold dilutions of virus suspension were prepared in virus growth medium. One hundred microlitres of each dilution was added to five replicate wells in 96-well tissue-culture plates. Cell controls were included on each plate. Plates were incubated at 37° C. in an atmosphere of 95% air/5% CO2. Cultures were observed daily for viral cytopathic effect for a period of seven days after which they were discarded. The virus titre was calculated by TCID50 (Tissue culture infective dose) using the Spaerman-Karber formula.
(§5) Negative logarithm of the 50% end point=Negative logarithm of the highest virus concentration used−[(Sum of % affected at each dilution/100−0.5)×([…])]
Various compositions as shown in Table-2 were prepared and their virucidal activity was measured using the procedure given earlier. […]
Various compositions as shown in Table-5 were prepared and their virucidal activity was measured using the procedure given earlier. […]

FCV (Feline Calcivirus) = test: Virucidal suspension test (EN14476), viral kill of FCV; type: cell-based, Feline Calicivirus; conditions: contact time five minutes, clean conditions (bovine albumin)
Method: as §1, §2, §3, §4, §5
Various compositions as shown in Table-1 were prepared and their virucidal activity was measured using the procedure given earlier. […]
Various compositions as shown in Table-4 were prepared and their virucidal activity was measured using the procedure given earlier. […]

Molecule	amount of virus remaining, Log TCID50/0.1 ml (MS2 Phage)	amount of virus remaining, Log TCID50/0.1 ml ([1]; RSV Control 4.70, Table 5)	amount of virus remaining, Log TCID50/0.1 ml (FCV (Feline Calcivirus); FCV Control 5.50, Table 4)	amount of virus remaining, Log TCID50/0.1 ml ([1]; RSV Control 5.00, Table 2)	amount of virus remaining, Log TCID50/0.1 ml (FCV (Feline Calcivirus); FCV Control 4.50, Table 1)
benzalkonium chloride [Example 10]	1.94 Log TCID50/0.1 ml	3.90 Log TCID50/0.1 ml	3.10 Log TCID50/0.1 ml		
benzalkonium chloride [Example 2]				2.50 Log TCID50/0.1 ml	3.25 Log TCID50/0.1 ml
COc1cc(/C=C/C(=O)CC(=O)/C=C/c2ccc(O)c(OC)c2)ccc1O [Example 3, Curcumin]				4.65 Log TCID50/0.1 ml	3.40 Log TCID50/0.1 ml
